Test results as given in patent US9278956B1, “Small-molecule inhibitors of Rac1 in metastatic cancer cells” (University of Puerto Rico, priority 2012, dated 2016).
Where two headings read alike, the source gives them in different places.

Tests used:
Trio = Trio (Homo sapiens, UniProt O75962); settings: cited from earlier work
Rac [1] = settings: cited from earlier work
Rac [2] = target: Rac (Homo sapiens, UniProt P63000); settings: cited from earlier work
Rac [3] = settings: fibroblasts; read-out: IC50 as Rac inhibitor in fibroblasts; cited from earlier work
MDA-MB-435 cells [4] = experiment: Lamellipodia formation by fluorescence microscopy (Rhodamine phalloidin), MDA-MB-435; format: cell-based, human
PAK1 = PAK1 activity by Western blot for phospho-Thr 423, MDA-MB-435 cells; format: cell-based, human; settings: both 2 and 4 μM, 24 h
Protocol: (§1) Cell lysates or pulldowns were western blotted using routine laboratory procedures. Anti-RhoA, -Rac (1,2,3), -Cdc42, -p-PAK^Thr423 antibodies were from Cell Signaling Technology, Inc., Danvers, Mass. Anti Vav2 was from Zymed, San Francisco, Calif.; and Rac3, PAK1, Tiam-1, and Trio antibodies were from Santa Cruz Biotechnology, Inc., Santa Cruz, Calif.
The effect of EHop-016 on Rac action was also determined by analyzing the activity of the Rac downstream effector PAK that regulates Rac-mediated lamellipodia extension and directed cell migration. […] Since Rac/PAK signaling regulates directed cell migration, the effect of EHop-016 at 0-5 μM was determined on migration of MDA-MB-435 cells by using a Transwell assay. As shown in FIG. 6(B), treatment with 2 and 5 μM EHop-016 reduced directed cell migration by ˜60% at concentrations that reduced Rac activity by ˜80% as shown in FIG. 2 and FIGS. 4A-4E. It is possible that Rac may not be the only regulator of cell migration in this highly invasive cancer cell line.

MDA-MB-231 cells [5] = experiment: Lamellipodia formation by fluorescence microscopy (Rhodamine phalloidin), MDA-MB-231; format: cell-based, human; settings: 4 μM, 24 h, control close to 100%
Protocol: Metastatic human cancer cell lines MDA-MB-435 and MDA-MB-231 (in DMEM with 10% FBS) were treated with vehicle (0.1% DMSO) or EHop-016 at 2 and 4 μM for 24 hrs. Cells were fixed, permeabilized, and stained with Rhodamine phalloidin to visualize F-actin.

Rac [6] = experiment: Rac.GTP pull-down (GST-PAK1 p21 binding domain), MDA-MB-435 cells; format: cell-based, human
Protocol: (§2) Rho, Rac, and Cdc42 activities were analyzed from MDA-MB-435 cell lysates by pulldown assays using GST-Rho binding domain from Rhotekin to isolate active GTP bound Rho, and a GST-p21 binding domain of PAK1 to isolate active Rac.GTP or Cdc42.GTP. Active and total Rho GTPases were identified by western blotting with specific antibodies: anti RhoA, anti Rac (1,2,3), anti Rac3, or anti Cdc42 (Cell Signaling Technology, Inc., Danvers, Mass.).
as §1

Rac3 = target: T1, Rac3 (Homo sapiens, UniProt P60763); experiment: Rac3-GTP pull-down, MDA-MB-435 cells; format: cell-based
T1 construct: endogenous in cells; host or cells: MDA-MB-435
Protocol: as §2, §1

[7] = Body weight and gross toxicity in athymic nude mice; format: in vivo; settings: oral and intraperitoneal, 1 mg/kg once a week for 9 weeks; preliminary
MDA-MB-435 cells [8] = experiment: Transwell cell migration assay; format: cell-based, human; settings: 2 and 5 μM, 24 h treatment, 4 h migration
Protocol: Quiescent MDA-MB-435 cells were treated with vehicle or varying concentrations of EHop-016 (0-5 μM) for 24 hrs. Exactly 2×10^5 cells were placed on the top well of Transwell chambers (Corning Life Sciences, Lowell, Mass.) with media containing 10% FBS in the bottom well. The number of cells that migrated to the underside of the membrane following 4 h incubation was quantified for each treatment.

RhoA = target: T2, RhoA (Homo sapiens, UniProt P61586); experiment: RhoA-GTP pull-down (GST-Rhotekin Rho binding domain), MDA-MB-435 cells; format: cell-based; settings: 2, 4, 5, or 10 μM
T2 construct: endogenous in cells; host or cells: MDA-MB-435
T2 sequence (P61586 whole entry, the tested form may be a part): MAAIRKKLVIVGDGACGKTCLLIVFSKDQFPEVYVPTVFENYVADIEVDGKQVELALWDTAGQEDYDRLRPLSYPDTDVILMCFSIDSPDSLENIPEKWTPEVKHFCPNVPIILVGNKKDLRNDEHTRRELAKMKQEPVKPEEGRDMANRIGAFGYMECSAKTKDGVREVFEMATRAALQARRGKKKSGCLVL
Protocol: as §2, §1

[9] = target: T3, Vav2 association with Rac1(G15A) (Homo sapiens, UniProt P63000, G15A); experiment: Precipitation of activated GEFs with GST-Rac1(G15A) from MDA-MB-435 lysates (Vav2); format: binding; settings: 1 h, p<0.005, read-out: association of Vav2 with Rac1(G15A), compared to controls
T3 construct: purchased Cell Biolabs, San Diego, Calif; host or cells: Vav2: endogenous, MDA-MB-435 lysate
Protocol: MDA-MB-435 cells in culture media were lysed in 1% Triton X-100, 20 mM HEPES, pH 7.4, 150 mM NaCl, 5 mM MgCl2, and protease inhibitors and processed. Equal amounts of protein from clarified lysates were incubated for 1 h at 4° C. with glutathione agarose beads conjugated to GST-Rac1(G15A) nucleotide free mutant (Cell Biolabs, San Diego, Calif.), that were pre-incubated (for 1 h) with vehicle or 2 or […] EHop-016. The beads were washed and the lysates and pulldowns immunoblotted for Tiam-1, Trio, or Vav2.

Rac1 = Rac1 (Homo sapiens, UniProt P63000); experiment: G-LISA Rac1 activation assay on MDA-MB-435 cell lysates; design: selectivity among Rho GTPases: dose or concentration left out as unconfirmed
MDA-MB-231 cells [10] = experiment: MTT cell viability assay, MDA-MB-231; format: cell-based, human
MDA-MB-435 cells [11] = experiment: MTT cell viability assay, MDA-MB-435; format: cell-based, human
Protocol: (§3) […] Cell viability was measured using the MTT [3-(4,5-dimethylthiazol-2-yl)-2,5-diphenyl tetrazolium bromide] cell survival and proliferation kit (Millipore, Inc., Billerica, Mass.) according to manufacturer's instructions.

Rac [12] = experiment: Rac.GTP pull-down (GST-PAK1 p21 binding domain), MDA-MB-231 cells; format: cell-based, human; settings: read-out: IC50 for inhibition of Rac activity
Protocol: as §2, §1

MCF-10A cells = experiment: MTT cell viability assay, MCF-10A mammary epithelial cells; format: cell-based
Protocol: as §3

[13] = target: Tiam-1 DH/PH domain / Rac1(G15A) (Homo sapiens, UniProt P63000, G15A); experiment: Interaction of purified Tiam-1 DH/PH domain with Rac1(G15A) beads
Cdc42 = target: T4, Cdc42 (Homo sapiens, UniProt P60953); experiment: Cdc42-GTP pull-down, MDA-MB-435 cells; format: cell-based
T4 construct: endogenous in cells; host or cells: MDA-MB-435
T4 sequence (P60953 whole entry): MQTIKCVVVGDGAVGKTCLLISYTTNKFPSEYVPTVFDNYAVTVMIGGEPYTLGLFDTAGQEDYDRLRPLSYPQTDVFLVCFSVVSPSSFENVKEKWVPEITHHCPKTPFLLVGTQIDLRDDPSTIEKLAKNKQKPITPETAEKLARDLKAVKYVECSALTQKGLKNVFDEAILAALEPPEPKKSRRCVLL
Protocol: as §2, §1

In the case of `Cc1cc(/C=c2/sc3nc4ccccc4n3c2=O)c(C)n1-c1ccccc1` [ITX3], the effective concentration (Trio) is given as 50 to 100 µM.
In the case of `O=c1cc(CN2CCOCC2)occ1OCCCCCSc1ccnc2cc(C(F)(F)F)ccc12` [EHT 1864], the “concentration interfering with Rac-downstream effector interaction” value (Rac [1]) is given as 10 to 50 µM and the “effective concentration as Rac inhibitor” value (Rac [1]) is given as 10 µM.
For `O=C(C#Cc1ccccc1)c1cccc([N+](=O)[O-])c1` [MLS000532223], the “effect on GTP binding to Rac” value (Rac [2]) is given as “prevents GTP binding to Rac”.
In the case of `CCN(CC)CCCC(C)Nc1nc(C)cc(Nc2ccc3nc(C)cc(N)c3c2)n1` (stereo not shown) [NSC23766, reference compound], the IC50 (Rac [3]) is listed as 50000 to 100000 nM and the “effect on lamellopodia formation” value (MDA-MB-435 cells [4]; 50 μM, MDA-MB-435) is listed as “no significant effect”.
For `CCn1c2ccccc2c2cc(Nc3ccnc(NCCCN4CCOCC4)n3)ccc21` [EHop-016, N^4-(9-Ethyl-9H-carbazol-3-yl)-N2-(3-morpholin-4-yl-propyl)-pyrimidine-2,4-diamine], the “effect on PAK activity (phospho-Thr 423 PAK1)” value (PAK1) was “dramatically inhibits”, the “cells that extended lamellipodia” value (MDA-MB-231 cells [5]) was about 30% and the “inhibition of Rac activity” value (Rac [6]; 2 μM) was 79%. For the same compound, the “inhibition of Rac activity” value (Rac [6]; 4 μM) was 93%, the inhibition at 1 µM (Rac3) was 58% and the “body weight and gross toxicity” value [7] was “no change in body weight or gross indications of toxicity”. For the same compound, the “reduction of directed cell migration” value (MDA-MB-435 cells [8]) was about 60%, the “increase of RhoA activity” value (RhoA) was about 1.3 fold and the remaining activity at 4 µM [9] was about 50%. For the same compound, the “potency relative to other currently available Rac inhibitors” value (Rac1) was 10-50 times, the “selectivity among Rho GTPases” value (Rac1) was “specific for Rac1 and Rac3” and the “reduction of Rac activity” value (Rac1; 2 and 5 μM) was about 80%. The “potency relative to NSC23766” value (Rac1; MDA-MB-435 cells) was “approximately 100 times”, the IC50 (Rac1; read-out: IC50 for inhibition of Rac1 activity, MDA-MB-435 cells, 24 h treatment) was 1100 nM and the “effect on cell viability” value (MDA-MB-231 cells [10]; 25 μM) was “significant reduction”. The “effect on cell viability” value (MDA-MB-231 cells [10]; 1 or 2 μM) was “did not significantly affect”, the “effect on extension of filopodia” value (MDA-MB-435 cells [4]; 2 and 4 μM) was “did not affect” and the “cells that extended lamellipodia” value (MDA-MB-435 cells [4]; both 2 and 4 μM, 24 h, MDA-MB-435, control close to 100%) was about 30%. For the same compound, the “decrease in cell number compared to controls” value (MDA-MB-435 cells [11]; 5 μM, MDA-MB-435, only a trend) was about 30%, the cell viability remaining (MDA-MB-435 cells [11]; 10 μM, MDA-MB-435) was about 50% and the “effect on cell viability” value (MDA-MB-435 cells [11]; 25 μM, MDA-MB-435) was “significant reduction”. The “effect on cell viability” value (MDA-MB-435 cells [11]; 1 or 2 μM, MDA-MB-435) was “did not significantly affect”, the “effect on cell viability” value (MDA-MB-435 cells [11]; low concentrations (<5 μM)) was “does not affect” and the IC50 (Rac [12]) was about 3000 nM. For the same compound, the “decrease in cell number compared to controls” value (MCF-10A cells; 5 μM, MCF-10A, only a trend) was about 30%, the cell viability remaining (MCF-10A cells; 10 μM, MCF-10A) was about 50% and the “effect on cell viability” value (MCF-10A cells; 25 μM, MCF-10A) was “significant reduction”. For the same compound, the “effect on cell viability” value (MCF-10A cells; 1 or 2 μM, MCF10A) was “did not significantly affect”, the “concentration at which Tiam-1 DH/PH-Rac1(G15A) interaction is inhibited” value [13] was 40 µM and the “effect on interaction of Tiam-1 DH/PH domain with Rac1(G15A)” value ([13]; 5 μM) was “did not affect”. The inhibition at 50 µM ([13]; read-out: inhibition of Tiam-1/Rac1(G15A) interaction) was 64%, the “effect on Cdc42 activity” value (Cdc42; 2 or 4 μM) was “did not affect” and the inhibition at 5 µM (Cdc42; MDA-MB-435, 5 μM) was 28%. It also gave an inhibition at 10 µM (Cdc42; MDA-MB-435, 10 μM) of 74%.
